In patent US20260250290A1 (BRISTOL-MYERS SQUIBB COMPANY, priority 2023, published 2026) one finds IC50 data, which are given here for 26 compounds.

Structures are written as SMILES. Structures can show the parent of a compound that is named as a salt.

The target of this assay is T1, full length SGK1 (Homo sapiens, UniProt O00141).
T1 construct: 125 μM full length SGK1 (Life Technologies Part #PR7358A); purchased Life Technologies PR7358A
T1 sequence (O00141 1-431): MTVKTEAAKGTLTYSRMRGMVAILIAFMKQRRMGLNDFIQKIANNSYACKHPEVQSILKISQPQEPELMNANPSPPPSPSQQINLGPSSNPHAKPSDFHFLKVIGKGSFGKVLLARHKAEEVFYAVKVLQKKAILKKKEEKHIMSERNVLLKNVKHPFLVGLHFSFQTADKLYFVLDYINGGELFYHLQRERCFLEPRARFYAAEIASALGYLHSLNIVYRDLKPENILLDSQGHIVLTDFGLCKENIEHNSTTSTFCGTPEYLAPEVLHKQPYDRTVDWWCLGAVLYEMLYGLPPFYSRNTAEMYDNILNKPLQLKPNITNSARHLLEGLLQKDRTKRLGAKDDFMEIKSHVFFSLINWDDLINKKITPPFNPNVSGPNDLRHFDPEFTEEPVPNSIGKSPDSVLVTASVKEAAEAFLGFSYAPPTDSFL
Put plainly: SGK1 inhibition Assay A (Caliper LabChip electrophoretic separation of fluorescent peptide substrate and phosphorylated product). The assay is classed as biochemical. To be noted: Assay A; 20 μM ATP, 40 min incubation; read-out: SGK1 IC50.

With `CS(=O)(=O)c1ccc(-c2cc(N3CCC[C@@H](NC(=O)c4ccsn4)C3)c3c(N)ncnn23)cc1` [Example 62, (R)-N-(1-(4-amino-7-(4-(methylsulfonyl)phenyl)pyrrolo[2,1-f][1,2,4]triazin-5-yl)piperidin-3-yl)isothiazole-3-carboxamide], the IC50 – broadly, the concentration needed to halve the response being measured – was 111 nM.

With `Cc1cc(C(=O)N[C@@H]2CCCN(c3cc(-c4ccc(S(C)(=O)=O)cc4)n4ncnc(N)c34)C2)on1` [Example 63, (R)-N-(1-(4-amino-7-(4-(methylsulfonyl)phenyl)pyrrolo[2,1-f][1,2,4]triazin-5-yl)piperidin-3-yl)-3-methylisoxazole-5-carboxamide, TFA], the IC50 came to 105 nM.

For the compound `CS(=O)(=O)c1ccc(-c2cc(N3CCC[C@@H](NC(=O)c4ccno4)C3)c3c(N)ncnn23)cc1` [Example 64, (R)-N-(1-(4-amino-7-(4-(methylsulfonyl)phenyl)pyrrolo[2,1-f][1,2,4]triazin-5-yl)piperidin-3-yl)isoxazole-5-carboxamide], the IC50 is 285 nM.

For the compound `CC(C)c1cc(C(=O)N[C@@H]2CCCN(c3cc(-c4ccc(S(C)(=O)=O)cc4)n4ncnc(N)c34)C2)on1` [Example 65, (R)-N-(1-(4-amino-7-(4-(methylsulfonyl)phenyl)pyrrolo [2,1-f][1,2,4]triazin-5-yl)piperidin-3-yl)-3-isopropylisoxazole-5-carboxamide], the IC50 is 19 nM.

For `CS(=O)(=O)c1ccc(-c2cc(N3CCC[C@@H](NC(=O)c4cncs4)C3)c3c(N)ncnn23)cc1` [Example 66, (R)-N-(1-(4-amino-7-(4-(methylsulfonyl)phenyl)pyrrolo[2,1-f][1,2,4]triazin-5-yl)piperidin-3-yl)thiazole-5-carboxamide], the IC50 was 39 nM.

With `COc1cc(C(=O)N[C@@H]2CCCN(c3cc(-c4ccc(S(C)(=O)=O)cc4)n4ncnc(N)c34)C2)c(OC)nn1` [Example 67, (R)-N-(1-(4-amino-7-(4-(methylsulfonyl)phenyl)pyrrolo[2,1-f][1,2,4]triazin-5-yl)piperidin-3-yl)-3,6-dimethoxypyridazine-4-carboxamide], the IC50 was found to be 261 nM.

Turning to `COc1cnccc1C(=O)N[C@@H]1CCCN(c2cc(-c3ccc(S(C)(=O)=O)cc3)n3ncnc(N)c23)C1` [Example 68, (R)-N-(1-(4-amino-7-(4-(methylsulfonyl)phenyl)pyrrolo[2,1-f][1,2,4]triazin-5-yl)piperidin-3-yl)-3-methoxyisonicotinamide], the IC50 came out at 287 nM.

With `CS(=O)(=O)c1ccc(-c2cc(N3CCC[C@@H](NC(=O)c4ccnc(N5CCOCC5)c4)C3)c3c(N)ncnn23)cc1` [Example 69, (R)-N-(1-(4-amino-7-(4-(methylsulfonyl)phenyl)pyrrolo[2,1-f][1,2,4]triazin-5-yl)piperidin-3-yl)-2-morpholinoisonicotinamide], the IC50 is 37 nM.

Take `CS(=O)(=O)c1ccc(-c2cc(N3CCC[C@@H](NC(=O)c4cnns4)C3)c3c(N)ncnn23)cc1` [Example 70, (R)-N-(1-(4-amino-7-(4-(methylsulfonyl)phenyl)pyrrolo[2,1-f][1,2,4]triazin-5-yl)piperidin-3-yl)-1,2,3-thiadiazole-5-carboxamide]: the IC50 was determined as 21 nM.

Take `COc1cc(C(=O)N[C@@H]2CCCN(c3cc(-c4ccc(S(C)(=O)=O)cc4)n4ncnc(N)c34)C2)sn1` [Example 71, (R)-N-(1-(4-amino-7-(4-(methylsulfonyl)phenyl)pyrrolo[2,1-f][1,2,4]triazin-5-yl)piperidin-3-yl)-3-methoxyisothiazole-5-carboxamide]: the IC50 worked out at 6 nM.

Regarding `CS(=O)(=O)c1ccc(-c2cc(N3CCC[C@@H](NC(=O)c4cc(Cl)ns4)C3)c3c(N)ncnn23)cc1` [Example 72, (R)-N-(1-(4-amino-7-(4-(methylsulfonyl)phenyl)pyrrolo[2,1-f][1,2,4]triazin-5-yl)piperidin-3-yl)-3-chloroisothiazole-5-carboxamide, TFA], the IC50 is 13 nM.

On to `Cc1cc(C(=O)N[C@@H]2CCCN(c3cc(-c4ccc(S(C)(=O)=O)cc4)n4ncnc(N)c34)C2)sn1` [Example 73, (R)-N-(1-(4-amino-7-(4-(methylsulfonyl)phenyl)pyrrolo[2,1-f][1,2,4]triazin-5-yl)piperidin-3-yl)-3-methylisothiazole-5-carboxamide], for which the IC50 came out at 8 nM.

As for `CS(=O)(=O)c1ccc(-c2cc(N3CCC[C@@H](NC(=O)c4cc(Cl)no4)C3)c3c(N)ncnn23)cc1` [Example 74, (R)-N-(1-(4-amino-7-(4-(methylsulfonyl)phenyl)pyrrolo[2,1-f][1,2,4]triazin-5-yl)piperidin-3-yl)-3-chloroisoxazole-5-carboxamide, TFA], the IC50 amounted to 25 nM.

Take `CS(=O)(=O)c1ccc(-c2cc(N3CCC[C@@H](NC(=O)c4cnn(C(F)F)c4)C3)c3c(N)ncnn23)cc1` [Example 75, (R)-N-(1-(4-amino-7-(4-(methylsulfonyl)phenyl)pyrrolo[2,1-f][1,2,4]triazin-5-yl)piperidin-3-yl)-1-(difluoromethyl)-1H-pyrazole-4-carboxamide, TFA]: the IC50 was 44 nM.

Take `CS(=O)(=O)c1ccc(-c2cc(N3CCC[C@@H](NC(=O)c4cnn(CC(F)(F)F)c4)C3)c3c(N)ncnn23)cc1` [Example 76, (R)-N-(1-(4-amino-7-(4-(methylsulfonyl)phenyl)pyrrolo[2,1-f][1,2,4]triazin-5-yl)piperidin-3-yl)-1-(2,2,2-trifluoroethyl)-1H-pyrazole-4-carboxamide]: the IC50 was 53 nM.

Take `CC(C)n1cc(C(=O)N[C@@H]2CCCN(c3cc(-c4ccc(S(C)(=O)=O)cc4)n4ncnc(N)c34)C2)cn1` [Example 77, (R)-N-(1-(4-amino-7-(4-(methylsulfonyl)phenyl)pyrrolo[2,1-f][1,2,4]triazin-5-yl)piperidin-3-yl)-1-isopropyl-1H-pyrazole-4-carboxamide, TFA]: the IC50 came to 31 nM.

With `CS(=O)(=O)c1ccc(-c2cc(N3CCC[C@@H](NC(=O)c4cnn(C5CCOCC5)c4)C3)c3c(N)ncnn23)cc1` [Example 78, (R)-N-(1-(4-amino-7-(4-(methylsulfonyl)phenyl)pyrrolo[2,1-f][1,2,4]triazin-5-yl)piperidin-3-yl)-1-(tetrahydro-2H-pyran-4-yl)-1H-pyrazole-4-carboxamide], the 50% inhibitory concentration (IC50) worked out at 67 nM.

As to `CCc1cccc(C(=O)N[C@@H]2CCCN(c3cc(-c4ccc(S(C)(=O)=O)cc4)n4ncnc(N)c34)C2)c1` [Example 79, (R)-N-(1-(4-amino-7-(4-(methylsulfonyl)phenyl)pyrrolo[2,1-f][1,2,4]triazin-5-yl)piperidin-3-yl)-3-ethylbenzamide, TFA], the IC50 came out at 26 nM.

Regarding `C=Cc1cccc(C(=O)N[C@@H]2CCCN(c3cc(-c4ccc(S(C)(=O)=O)cc4)n4ncnc(N)c34)C2)c1` [Example 80, (R)-N-(1-(4-amino-7-(4-(methylsulfonyl)phenyl)pyrrolo[2,1-f][1,2,4]triazin-5-yl)piperidin-3-yl)-3-vinylbenzamide], the IC50 worked out at 14 nM.

`CC(C)c1cccc(C(=O)N[C@@H]2CCCN(c3cc(-c4ccc(S(C)(=O)=O)cc4)n4ncnc(N)c34)C2)c1` [Example 81, (R)-N-(1-(4-amino-7-(4-(methylsulfonyl)phenyl)pyrrolo[2,1-f][1,2,4]triazin-5-yl)piperidin-3-yl)-3-isopropylbenzamide]: the IC50 amounted to 32 nM.

For the compound `CS(=O)(=O)c1ccc(-c2cc(N3CCC[C@@H](NC(=O)c4cccc(C5CC5)c4)C3)c3c(N)ncnn23)cc1` [Example 82, (R)-N-(1-(4-amino-7-(4-(methylsulfonyl)phenyl)pyrrolo[2,1-f][1,2,4]triazin-5-yl)piperidin-3-yl)-3-cyclopropylbenzamide], the IC50 came to 15 nM.

`CS(=O)(=O)c1ccc(-c2cc(N3CCC[C@@H](NC(=O)c4ccc5c(c4)CC5)C3)c3c(N)ncnn23)cc1` [Example 83, (R)-N-(1-(4-amino-7-(4-(methylsulfonyl)phenyl)pyrrolo[2,1-f][1,2,4]triazin-5-yl)piperidin-3-yl)bicyclo[4.2.0]octa-1(6),2,4-triene-3-carboxamide, TFA]: the IC50 was 48 nM.

As for `Cc1ccc(C(=O)N[C@@H]2CCCN(c3cc(-c4ccc(S(C)(=O)=O)cc4)n4ncnc(N)c34)C2)cc1C` [Example 84, (R)-N-(1-(4-amino-7-(4-(methylsulfonyl)phenyl)pyrrolo[2,1-f][1,2,4]triazin-5-yl)piperidin-3-yl)-3,4-dimethylbenzamide, TFA], the IC50 is 19 nM.

Take `CS(=O)(=O)c1ccc(-c2cc(N3CCC[C@@H](NC(=O)c4cccc(Br)c4)C3)c3c(N)ncnn23)cc1` [Example 85, (R)-N-(1-(4-amino-7-(4-(methylsulfonyl)phenyl)pyrrolo[2,1-f][1,2,4]triazin-5-yl)piperidin-3-yl)-3-bromobenzamide, TFA]: the IC50 turned out to be 27 nM.

As for `CS(=O)(=O)c1ccc(-c2cc(N3CCC[C@@H](NC(=O)c4ccnc(Br)c4)C3)c3c(N)ncnn23)cc1` [Example 86, (R)-N-(1-(4-amino-7-(4-(methylsulfonyl)phenyl)pyrrolo[2,1-f][1,2,4]triazin-5-yl)piperidin-3-yl)-2-bromoisonicotinamide, TFA], the IC50 amounted to 9 nM.

Consider `Cc1ccc(C(=O)N[C@@H]2CCCN(c3cc(-c4ccc(S(C)(=O)=O)cc4)n4ncnc(N)c34)C2)s1` [Example 87, (R)-N-(1-(4-amino-7-(4-(methylsulfonyl)phenyl)pyrrolo[2,1-f][1,2,4]triazin-5-yl)piperidin-3-yl)-5-methylthiophene-2-carboxamide], for which the IC50 is 2 nM.
